In ChEMBL document CHEMBL5608163, “Structure modification of anoplin for fighting resistant bacteria” (Eur J Med Chem, 2024) one finds MIC and HC10 data, which are given here for eight compounds.

In series [1] the test system is Bacillus subtilis. Put plainly: Antibacterial activity against Bacillus subtilis ATCC 23857 assessed as reduction in bacterial growth incubated for 18 to 20 hrs by Mueller Hinton broth dilution method. Type of series: functional. The conditions noted are these: time 18-20 hrs.
The subject of series [2] is Escherichia coli. Put plainly: Antibacterial activity against Escherichia coli ATCC 25922 assessed as reduction in bacterial growth incubated for 18 to 20 hrs by Mueller Hinton broth dilution method. Type of series: functional. As to conditions: time 18-20 hrs.
The test system of series [3] is Klebsiella pneumoniae. Put plainly: Antimicrobial activity against Klebsiella pneumoniae assessed as reduction in bacterial growth incubated for 18 to 20 hrs by Mueller-Hinton broth based microdilution method. Format: functional. As to conditions: time 18-20 hrs. (In broth dilution the organism is exposed to a series of concentrations in liquid medium.)
Series [4] deals with Staphylococcus aureus. Put plainly: Antibacterial activity against Staphylococcus aureus ATCC 25923 assessed as reduction in bacterial growth incubated for 18 to 20 hrs by Mueller Hinton broth dilution method. The conditions noted are these: time 18-20 hrs. Format: functional.
The test system of series [5] is Pseudomonas aeruginosa. Put plainly: Antibacterial activity against Pseudomonas aeruginosa ATCC 27853 assessed as reduction in bacterial growth incubated for 18 to 20 hrs by Mueller Hinton broth dilution method. Type of series: functional. The conditions noted are these: time 18-20 hrs.
Series [6] deals with Erythrocyte. Put plainly: Hemolytic activity in mouse Red blood cells incubated for 1 hr by microplate reader assay. Type of series: toxicity, cell-based. As to conditions: erythrocyte, 1 h.
In series [7] the test system is Escherichia coli. Put plainly: Antibacterial activity against Escherichia coli ATCC 25922 assessed as reduction in bacterial cell growth incubated for 18 hrs by two fold serial microdilution method. Format: functional.
For series [8], the system named is Klebsiella pneumoniae. Description: Antibacterial activity against Klebsiella pneumoniae ATCC 700603 assessed as reduction in bacterial cell growth incubated for 18 hrs by two fold serial microdilution method. Type of series: functional.
Series [9] has as its system Pseudomonas aeruginosa. Put plainly: Antibacterial activity against Pseudomonas aeruginosa ATCC 27853 assessed as reduction in bacterial cell growth incubated for 18 hrs by two fold serial microdilution method. Type of series: functional.
For series [10], the system named is Staphylococcus epidermidis. Put plainly: Antibacterial activity against Staphylococcus epidermidis ATCC 12228 assessed as reduction in bacterial cell growth incubated for 18 hrs by two fold serial microdilution method. Format: functional.
Series [11] concerns Staphylococcus aureus. Put plainly: Antibacterial activity against Staphylococcus aureus ATCC 25923 assessed as reduction in bacterial cell growth incubated for 18 hrs by two fold serial microdilution method. Type of series: functional.
Series [12] has as its system Erythrocyte. Description: Hemolytic activity in mouse Red blood cells incubated for 1 hr. Format: toxicity, cell-based.
The test system of series [13] is Acinetobacter baumannii. Put plainly: Antibacterial activity against Acinetobacter baumannii ATCC 19606 assessed as inhibition in bacterial growth incubated for 20 to 24 hrs by CLSI based broth microdilution method. Type of series: functional. As to conditions: time 20-24 hrs.

Values after ≈ are worked out from the molar mass of the structure shown. Square brackets hold non-standard residues; d marks the D form. Peptide text beside a SMILES is read from it. βAla = NCCC(=O)O

Regarding `CC[C@H](C)[C@H](NC(=O)[C@@H](CCCNC(=N)N)NC(=O)[C@H](CCCCN)NC(=O)[C@H](CC(C)C)NC(=O)[C@H](CC(C)C)NC(=O)CN)C(=O)N[C@@H](CCCCN)C(=O)N[C@@H](C(=O)N[C@@H](CC(C)C)C(=O)N[C@@H](CC(C)C)C(N)=O)[C@H](C)O`, the MIC (usually the lowest concentration that inhibits growth of the organism) in series [1] is 32 µM (≈ 36.9 µg/mL); in [2], 256 µM (≈ 295 µg/mL); in series [3], above 256 µM; in series [4], above 256 µM; in series [5], 128 µM (≈ 148 µg/mL). The HC10 in series [6] is above 300 µM.

Regarding `CC[C@H](C)[C@H](NC(=O)[C@H](CCCNC(=N)N)NC(=O)[C@H](CCCCN)NC(=O)[C@H](CC(C)C)NC(=O)[C@H](CC(C)C)NC(=O)CN)C(=O)N[C@H](CCCCN)C(=O)N[C@@H](C(=O)N[C@@H](CC(C)C)C(=O)N[C@@H](CC(C)C)C(N)=O)[C@H](C)O`, the MIC was 64 µM (≈ 73.8 µg/mL) in [1]; above 25 µM in series [2]; above 256 µM in [3]; above 256 µM in series [4]; 128 µM (≈ 148 µg/mL) in series [5]. The compound also registered an HC10 in [6] above 300 µM.

Turning to `CC[C@H](C)[C@H](NC(=O)[C@H](CCCNC(=N)N)NC(=O)[C@H](CCCCN)NC(=O)[C@H](CC(C)C)NC(=O)[C@H](CC(C)C)NC(=O)CN)C(=O)N[C@@H](CCCCN)C(=O)N[C@H](C(=O)N[C@@H](CC(C)C)C(=O)NCCC(N)=O)[C@@H](C)O` (H-GLLKRIKTL[βAla]-NH2), the MIC in series [7], in series [8], in series [9], in [10], in [11] and in [13] was above 128 µM throughout. This compound also gave an HC10 in series [12] above 256 µM.

For `CC[C@H](C)[C@H](NC(=O)[C@H](CCCNC(=N)N)NC(=O)[C@H](CCCCN)NC(=O)[C@H](CC(C)C)NC(=O)[C@H](CC(C)C)NC(=O)CN)C(=O)N[C@@H](CCCCN)C(=O)N[C@H](C(=O)NCCC(=O)N[C@@H](CC(C)C)C(N)=O)[C@@H](C)O` (H-GLLKRIKT[βAla]L-NH2), the MIC in [7], in series [8], in series [9], in [10], in [11] and in series [13] was above 128 µM in each case. In series [12], this compound showed an HC10 above 256 µM.

For `CC[C@H](C)[C@H](NC(=O)[C@H](CCCNC(=N)N)NC(=O)[C@H](CCCCN)NC(=O)[C@H](CC(C)C)NC(=O)[C@H](CC(C)C)NC(=O)CN)C(=O)N[C@@H](CCCCN)C(=O)NCCC(=O)N[C@@H](CC(C)C)C(=O)N[C@@H](CC(C)C)C(N)=O` (H-GLLKRIK[βAla]LL-NH2), the MIC was 32 µM (≈ 36 µg/mL) in series [7]; 128 µM (≈ 144 µg/mL) in series [8]; 4 µM (≈ 4.49 µg/mL) in series [9]; 16 µM (≈ 18 µg/mL) in series [10]; 128 µM (≈ 144 µg/mL) in series [11]; above 128 µM in [13]. For the same compound, in series [12], the HC10 is above 256 µM.

For the compound `CC[C@H](C)[C@H](NC(=O)[C@H](CCCNC(=N)N)NC(=O)[C@H](CCCCN)NC(=O)[C@H](CC(C)C)NC(=O)[C@H](CC(C)C)NC(=O)CN)C(=O)NCCC(=O)N[C@H](C(=O)N[C@@H](CC(C)C)C(=O)N[C@@H](CC(C)C)C(N)=O)[C@@H](C)O` (H-GLLKRI[βAla]TLL-NH2), the MIC in series [7] is 64 µM (≈ 70.2 µg/mL); in series [8], 128 µM (≈ 140 µg/mL); in series [9] it was 32 µM (≈ 35.1 µg/mL); in series [10], 32 µM (≈ 35.1 µg/mL); in series [11], 64 µM (≈ 70.2 µg/mL); in series [13], above 128 µM. In series [12], this compound yielded an HC10 above 256 µM.

Regarding `CC(C)C[C@H](NC(=O)[C@H](CC(C)C)NC(=O)[C@@H](NC(=O)[C@H](CCCCN)NC(=O)CCNC(=O)[C@H](CCCNC(=N)N)NC(=O)[C@H](CCCCN)NC(=O)[C@H](CC(C)C)NC(=O)[C@H](CC(C)C)NC(=O)CN)[C@@H](C)O)C(N)=O` (H-GLLKR[βAla]KTLL-NH2), the MIC in series [7], in series [8], in series [9], in series [10], in [11] and in series [13] was above 128 µM in each case. The compound further showed an HC10 in series [12] above 256 µM.

With `CC[C@H](C)[C@H](NC(=O)CCNC(=O)[C@H](CCCCN)NC(=O)[C@H](CC(C)C)NC(=O)[C@H](CC(C)C)NC(=O)CN)C(=O)N[C@@H](CCCCN)C(=O)N[C@H](C(=O)N[C@@H](CC(C)C)C(=O)N[C@@H](CC(C)C)C(N)=O)[C@@H](C)O` (H-GLLK[βAla]IKTLL-NH2), the MIC was above 128 µM in series [7]; above 128 µM in [8]; 16 µM (≈ 17.1 µg/mL) in series [9]; 32 µM (≈ 34.2 µg/mL) in [10]; above 128 µM in series [11]; above 128 µM in series [13]. The compound also yielded an HC10 in series [12] above 256 µM.
